Data reported in patent US20200299671A1, “IMMOBILIZED MULTI-ENZYMATIC HALOGENATION SYSTEM” (priority 2019, published 2020).
Blank lines part the entries; values can stand above or below the molecule they belong to.

Key:
[1] = biological target: T1, PltM (Pseudomonas protegens, UniProt Q4KCZ3); test: Optimized in vitro PltM halogenation assay (PltM, SsuE, GDH), overnight overall yield by HPLC; format: biochemical; settings: for % overall conversion (trial 1) / % overall conversion (trial 2): optimized chlorination reaction, sum of all chlorinated products; for % overall conversion (trial 1): first of two independent reactions; for % overall conversion (trial 2): second of two independent reactions; for conversion upon overnight reaction: optimized conditions
Method: To increase production of halogenated molecules and decrease the amount of NADPH required, the above in vitro assay was optimized by using an additional enzyme, glucose dehydrogenase (GDH). […] The overall yield of halogenation products was determined for reactions run overnight for several substrates (Table 8). Conversion of the substrate to halogenated products was monitored by HPLC at λ=275-320 nm, where the absorbance of molecules is not affected by halogenation, and quantified as fraction of reaction species (%).
(§1) The time course experiments were performed in duplicate. Compound 1 was unstable under these optimized conditions, and it was not tested. The in vitro analysis of K87A mutant was performed overnight in 100 μL reaction mixture by using the compound 11 as a substrate. Wild-type PltM was used as a positive control, and no enzyme reaction was used as a negative control. In all above reactions, the compounds were extracted with EtOAc (4×100 μL) and dried under gentle air flow.
(§2) The halogenation reaction products were analyzed by HPLC or LC-MS by injecting 10 μL of each sample. The compounds were separated by Reversed-phase HPLC at the flow rate of 0.2 mL/min by using the following program: eluent A=H2O; eluent B=MeCN; gradient=2% B for 5 min, increase to 100% B over a 30 min period, stay at 100% B for 9 min, decrease to 2% B over a 1 min period, and re-equilibrate the column at 2% B for 30 min.
(§3) For HPLC analysis, the molecules were observed by absorbance at λ=275 nm as described above. As necessary, the following mass spectrometer was operated in negative and positive modes with the following parameters: For negative mode, mass range, 80-600 m/z in profile mode; temperature, 550° C. and ion spray voltage floating, −4500 V, and for positive mode, mass range, 80-600 m/z in profile mode; temperature, 550° C. and ion spray voltage floating, 4500 V. The presence of each compound was analyzed by extracted ion chromatograph (XIC) with the expected mass ±0.05 Da for Assay 1 and Assay 2 and ±0.005 Da for Assay 3 (FIGS. 2A-C, 8-13, and 17-37; Tables 3-4 and 7).

[2] = biological target: T1, PltM; format: biochemical; settings: optimized conditions; for preference for bromination versus iodination: time course
Method: To increase production of halogenated molecules and decrease the amount of NADPH required, the above in vitro assay was optimized by using an additional enzyme, glucose dehydrogenase (GDH). […] Conversion of the substrate to halogenated products was monitored by HPLC at λ=275-320 nm, where the absorbance of molecules is not affected by halogenation, and quantified as fraction of reaction species (%).
as §1, with “Compound 1 was unstable under these optimized conditions, and it was not tested.” left out
To determine the halogenation preference, the kinetic parameters were obtained by the global nonlinear regression analysis of all reaction species using DynaFit software for the following halogenation mechanism:
where E, S, P1, P2 are enzyme, substrate, mono- and dihalogenated product, respectively.

[3] = biological target: T1, PltM; test: In vitro PltM halogenation assay with a single halide salt, substrate profile (Assay 1a-1d), LC-MS; format: biochemical; settings: for iodination by PltM (products identified by LC-MS): NaI as halide source (Assay 1d); for chlorination by PltM (products identified by LC-MS): NaCl as halide source (Assay 1b)
Method: The halogenation assays were carried out similarly to a recently described procedure. For substrate profile determination (Assay 1), 100 μL reactions were carried out in 30 mM sodium phosphate pH 7.4. As a halide source, 200 mM of either NaF (Assay 1a), NaCl (Assay 1b), NaBr (Assay 1c), or NaI (Assay 1d) was used. To ensure that PltM is incapable of fluorinating, an additional 200 μL reaction with 300 mM NaF was run. A 200 μL reaction with 400 mM NaBr was also run to ensure no additional bromination reaction occurred. Each reaction also contained a specified substrate (0.5 mM), FAD (0.2 mM), NADPH (5 mM), PltM (5.5 μM), and SsuE (5.0 μM). The reactions were initiated by adding NADPH under N2. The reaction tubes were tightly closed to avoid contact with air. The reaction mixtures were incubated at 25° C. for 3 h prior to extraction with EtOAc (4×100 μL). The organic layer was dried by a gentle flow of air, and the residue was dissolved in MeOH to prepare 1-10 μg/mL samples for LC-MS analysis.
as §2, §3

[4] = substrate: Nc1cccc(O)c1; test: purified protein, by the assay type; settings: pH 7.4
[5] = substrate: Oc1ccc(Cl)c(O)c1; test: purified protein, by the assay type; settings: other: halogen Cl; labelled species converted to next chlorinated product (for 16: to Cl-16a); pH 7.4
[6] = substrate: OCc1cc(O)cc(O)c1; test: purified protein, by the assay type; format: biochemical; settings: pH 7.4
[7] = substrate: OCc1cc(O)cc(O)c1Cl; test: purified protein, by the assay type; format: biochemical; settings: other: halogen Cl; labelled species converted to next chlorinated product (for 16: to Cl-16a); pH 7.4
[8] = substrate: Oc1cccc(O)c1; test: purified protein, by the assay type; format: biochemical; settings: pH 7.4
[9] = other: halogen Br, 16/Br-16b (second mono-brominated product)
[10] = other: halogen Br, labelled species converted to next brominated product (for 16: to Br-16a)
[11] = other: halogen Cl, 16/Cl-16b (second mono-chlorinated product)
[12] = other: halogen Cl, labelled species converted to next chlorinated product (for 16: to Cl-16a)

Molecule: Oc1cccc(O)c1 [Compound 3]
% overall conversion (trial 1) ([1]; overnight): 100, 100%
% overall conversion (trial 2) ([1]; overnight): 100, 100%
conversion upon overnight reaction [1]: 100%
dibromination by PltM [2]: dibrominated
preference for bromination versus iodination [2]: preference for bromination

Molecule: Cc1cc(O)cc(O)c1 [Compound 9]
% overall conversion (trial 1) ([1]; overnight): 97%
% overall conversion (trial 2) ([1]; overnight): 96%

Molecule: OCc1cc(O)cc(O)c1 [Compound 11]
bromination by PltM (products identified by LC-MS) ([3]; NaBr as halide source (Assay 1c)): Mono-bromination of 11 was observed, but not dibromination
fluorination by PltM (products identified by LC-MS) ([3]; NaF as halide source (Assay 1a)): not dibromination or fluorination
% overall conversion (trial 1) ([1]; overnight): 100, 100%
% overall conversion (trial 2) ([1]; overnight): 100, 100%
conversion upon overnight reaction [1]: 100%
product with wild-type PltM ([1]; overnight, conditions of the K87A analysis (positive control)): yields diCl-11
preference for bromination versus iodination [2]: for iodination

Molecule: CC(=O)c1c(O)cc(O)cc1O [Compound 15]
% overall conversion (trial 1) ([1]; overnight): 34%
% overall conversion (trial 2) ([1]; overnight): 7%

% overall conversion (trial 1) ([1]; overnight): 100, 100%
% overall conversion (trial 2) ([1]; overnight): 100, 100%
conversion upon overnight reaction [1]: 100%
dibromination by PltM [2]: dibrominated
preference for bromination versus iodination [2]: preference for bromination
Molecule: Nc1cccc(O)c1 [Compound 16]

Molecule: Nc1cccc(N)c1 [Compound 18]
% overall conversion (trial 1) ([1]; overnight): 100, 100%
% overall conversion (trial 2) ([1]; overnight): 100, 100%

halogenation by PltM (substrate profile) ([3]; tested for chlorination and iodination): not observed
Molecule: N[C@@H](Cc1c[nH]c2ccccc12)C(=O)O [Compound 20, L-Trp]

Molecule: CC(C)(C)NCC(O)c1cc(O)cc(O)c1 (centres unmarked) [Compound 21, terbutaline, reference compound]
iodination by PltM (products identified by LC-MS) [3]: both mono and di

Molecule: CC(Cc1ccc(O)cc1)NCC(O)c1cc(O)cc(O)c1 (centres unmarked) [Compound 22, fenoterol, reference compound]
iodination by PltM (products identified by LC-MS) [3]: mono-iodinated

Molecule: Oc1ccc(C=Cc2cc(O)cc(O)c2)cc1 [Compound 23, resveratrol]
chlorination by PltM (products identified by LC-MS) [3]: mono-chlorinated
iodination by PltM (products identified by LC-MS) [3]: mono-iodinated
% overall conversion (trial 1) ([1]; overnight): 24%
% overall conversion (trial 2) ([1]; overnight): 20%

Molecule: catechin [Compound 24]
chlorination by PltM (products identified by LC-MS) [3]: mono-chlorinated
iodination by PltM (products identified by LC-MS) [3]: mono-iodinated

B1: PltM (Pseudomonas protegens Pf-5) (protein)
chain: MNQYDVIIIGSGIAGALTGAVLAKSGLNVLILDSAQHPRFSVGEAATPESGFLLRLLSKRFDIPEIAYLSHPDKIIQHVGSSACGIKLGFSFAWHQENAPSSPDHLVAPPLKVPEAHLFRQDIDYFALMIALKHGAESRQNIKIESISLNDDGVEVALSNAAPVKAAFIIDAAAQGSPLSRQLGLRTTEGLATDTCSFFTHMLNVKSYEDALAPLSRTRSPIELFKSTLHHIFEEGWLWVIPFNNHPQGTNQLCSIGFQFNNAKYRPTEAPEIEFRKLLKKYPAIGEHFKDAVNAREWIYAPRINYRSVQNVGDRFCLLPQATGFIDPLFSRGLITTFESILRLAPKVLDAARSNRWQREQFIEVERHCLNAVATNDQLVSCSYEAFSDFHLWNVWHRVWLSGSNLGSAFLQKLLHDLEHSGDARQFDAALEAVRFPGCLSLDSPAYESLFRQSCQVMQQAREQARPVAETANALHELIKEHEAELLPLGYSRISNRFILKV
Km [4, 9]: 151 ± 20 µM
kcat [4, 9]: 0.0367 s⁻¹
kcat/Km [4, 9]: 250 M⁻¹ s⁻¹
Km [4, 10]: 151 ± 20 µM
kcat [4, 10]: 0.00783 s⁻¹
kcat/Km [4, 10]: 51.7 M⁻¹ s⁻¹
Km [4, 11]: 1.1 ± 0.3 µM
kcat [4, 11]: 0.00367 s⁻¹
kcat/Km [4, 11]: 3170 M⁻¹ s⁻¹
Km [4, 12]: 1.1 ± 0.3 µM
kcat [4, 12]: 0.00583 s⁻¹
kcat/Km [4, 12]: 5170 M⁻¹ s⁻¹
Km [5]: 0.11 ± 0.02 µM
kcat [5]: 0.00667 s⁻¹
kcat/Km [5]: 58300 M⁻¹ s⁻¹
Km [6, 10]: (1.1 ± 0.2) × 10^3 μM
kcat [6, 10]: 0.004 ± 0.000333 s⁻¹
kcat/Km [6, 10]: 3.67 ± 0.333 M⁻¹ s⁻¹
Km [6, 12]: 8.4 ± 0.4 µM
kcat [6, 12]: 0.0267 ± 0.00167 s⁻¹
kcat/Km [6, 12]: 3170 ± 167 M⁻¹ s⁻¹
Km [7]: 0.44 ± 0.02 µM
kcat [7]: 0.003 ± 0.000167 s⁻¹
kcat/Km [7]: 6830 ± 333 M⁻¹ s⁻¹
Km [8, 10]: 0.71 ± 0.2 µM
kcat [8, 10]: 0.0317 ± 0.00167 s⁻¹
kcat/Km [8, 10]: 45000 ± 10000 M⁻¹ s⁻¹
Km [8, 12]: (7.6 ± 1.3) × 10^−2 μM
kcat [8, 12]: 2.3 ± 0.1^a min^−1
kcat/Km [8, 12]: 30 ± 5 ^ min^−1μM^−1
